As a reminder, the IC50 is the point on the concentration scale where inhibition reaches its midpoint. Read a high IC50 as a need for much substance. Broadly, the EC50 is the concentration giving half of the maximal effect. High values mean a need for much substance, low ones an effect from little substance. One may read the solubility as the dissolved amount per volume that the medium holds. A low value points to a poorly soluble substance.

Experimental findings from patent publication US9290457B2, “Substituted dihydropyrimidinones and their use as inhibitors of neutrophil elastase activity” (Boehringer Ingelheim International GmbH, priority 2014, dated 2016) are described below.

In brackets after ≈: the same amount, converted by molar mass. Where only a bound is given, the exact number is not on record here.

The target of data set [1] is T1, neutrophil elastase (Homo sapiens (Human), UniProt P08246). Kind of data set: Human Neutrophil Elastase Assay. Format: biochemical. The following applies: substrate MeOSuc-Ala-Ala-Pro-Val-AMC.
Target sequence in this assay (P08246 30-247): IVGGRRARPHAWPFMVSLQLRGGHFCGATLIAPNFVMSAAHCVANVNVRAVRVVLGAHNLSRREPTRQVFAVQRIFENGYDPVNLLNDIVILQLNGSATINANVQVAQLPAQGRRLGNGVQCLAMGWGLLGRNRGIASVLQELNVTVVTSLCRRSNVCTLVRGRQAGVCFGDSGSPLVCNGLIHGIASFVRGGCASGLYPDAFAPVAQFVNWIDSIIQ
Data set [2] has as its target T1, neutrophil elastase. The experiment in a line: Neutrophil elastase inhibitory activity in human plasma. The following applies: zymosan-stimulated human plasma, substrate MeOSuc-Ala-Ala-Pro-Val-AMC. Format: biochemical. The protocol:
Assay for the Determination of Neutrophil Elastase Inhibitory Activity in Human Plasma
Citrated blood from human healthy donors is mixed with zymosan suspension and incubated at room temperature. This leads to the stimulation of neutrophils and the release of neutrophil elastase into the plasma. The stimulated blood is centrifuged to generate the neutrophil elastase enriched plasma.
Preparation of Zymosan Working Solution:
• A single 45 ml blood sample is taken into a 50 ml tube containing citrate (3.13%, 5 mL) and the tube is gently inverted 4 times. • Immediately after blood sampling, zymosan working solution (5 mL) is added. • After the addition of zymosan working solution, the tubes are capped, mixed gently and incubated at 22° C. for 15 min on a shaker at 20 rpm. • Make 10 ml aliquots after the incubation time. • Centrifuge the 15 ml tubes at 800 g for 15 min at 4° C. in a Jouan centrifuge. • Harvest the plasma and make 1-5 ml aliquots. • Store the plasma at −80° C.
Various concentrations of the neutrophil elastase inhibitor are incubated with plasma. Subsequently, the enzyme activity is measured using the fluorogenic substrate MeOSuc-Ala-Ala-Pro-Val-AMC (Bachem Cat. No. I-1270, substrate concentration: 250 μM, pH 7.5, 25 mM TRIS buffer, 250 mM NaCl) in analogous fashion as described for the human neutrophil assay. A dose response curve is generated to calculate the EC50 of the inhibitor. The analysis of the data is performed by the calculation of the percentage of fluorescence in the presence of the test compound compared to the fluorescence of the vehicle control after subtracting the background fluorescence: An inhibitor of the neutrophil elastase enzyme will give values between 100% control (no inhibition) and 0% control (complete inhibition).
Target sequence in this assay (P08246 30-267): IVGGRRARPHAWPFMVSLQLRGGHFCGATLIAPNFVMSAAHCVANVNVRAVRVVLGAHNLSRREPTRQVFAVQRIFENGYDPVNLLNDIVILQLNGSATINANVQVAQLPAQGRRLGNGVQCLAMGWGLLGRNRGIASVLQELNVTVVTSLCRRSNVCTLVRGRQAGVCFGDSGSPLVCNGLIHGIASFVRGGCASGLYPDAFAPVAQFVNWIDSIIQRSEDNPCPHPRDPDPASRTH

Data set [3] is described as follows: Metabolic stability with human liver microsomes. Format: in vitro ADME. Conditions: pH 7.6; pooled human liver microsomes, 1 μM compound, 37° C.; read-out: t1/2 INVITRO. The protocol:
Assay for the Determination of Metabolic Stability with Human Liver Microsomes
The metabolic degradation of the test compound is assayed at 37° C. with pooled human liver microsomes. The final incubation volume of 100 μl per time point contains TRIS buffer pH 7.6 (0.1 M), magnesium chloride (5 mM), microsomal protein (1 mg/ml) and the test compound at a final concentration of 1 μM. Following a short preincubation period at 37° C., the reactions are initiated by addition of beta-nicotinamide adenine dinucleotide phosphate, reduced form (NADPH, 1 mM) and terminated by transferring an aliquot into acetonitrile after different time points. Additionally, the NADPH-independent degradation is monitored in incubations without NADPH, terminated at the last time point. The [%] remaining test compound after NADPH independent incubation is reflected by the parameter c(control) (metabolic stability). The quenched incubations are pelleted by centrifugation (10,000 g, 5 min) An aliquot of the supernatant is assayed by LC-MS/MS for the amount of parent compound.
The half-life (t1/2 INVITRO) is determined by the slope of the semilogarithmic plot of the concentration-time profile. The intrinsic clearance (CL_[…]) is calculated by considering the amount of protein in the incubation: CL_[…][μl/min/mg protein]=(ln 2/(half-life[min]*protein content[mg/ml]))*1,000.
The half-life (t1/2 INVITRO) values of selected compounds in the metabolic stability assay human liver microsomes described above are listed in Table 3.
A general note: Microsomes from liver hold many membrane-bound enzymes, among them those of drug oxidation.

The nature of data set [4]: Drug transport across human Caco-2 cells. Format: in vitro ADME. The following applies: human, Caco-2, pH 7.2, 37° C. The text has this:
Assay for Determination of Drug Transport Across Human Caco-2 Cells
The assay provides information on the potential of a compound to pass the cell membrane, on the extent of oral absorption as well as on whether the compound is actively transported by uptake and/or efflux transporters. For the measurement of permeability across polarized, confluent human cancer colon carcinoma cells 2 (Caco-2) cell monolayers grown on permeable filter supports are used as the in vitro absorption model.
Apparent permeability coefficients (PE) of the compounds across the Caco-2 monolayers are measured (pH 7.2, 37° C.) in apical-to-basal (AB) (absorptive) and basal-to-apical (BA) (secretory) transport direction. AB permeability (PEAB) represents drug absorption from the intestine into the blood and BA permeability (PEBA) drug secretion from the blood back into the intestine via both passive permeability as well as active transport mechanisms mediated by efflux and uptake transporters that are expressed on the Caco-2 cells. The compounds are assigned to permeability/absorption classes by comparison of the AB permeabilities with the AB permeabilities of reference compounds with known in vitro permeability and oral absorption in the human. Identical or similar permeabilities in both transport directions indicate passive permeation, vectorial permeability points to additional active transport mechanisms. […] Active transport is concentration-dependently saturable.
Caco-2 cells (1-2*10^5 cells/cm^2 area) are seeded on filter inserts (Costar transwell polycarbonate or PET filters, 0.4 μm pore size) and cultured (DMEM) for 10 to 25 days. Compounds are dissolved in appropriate solvent (like DMSO, 1-20 mM stock solutions). Stock solutions are diluted with HTP-4 buffer (128.13 mM NaCl, 5.36 mM KCl, 1 mM MgSO4, 1.8 mM CaCl2, 4.17 mM NaHCO3, 1.19 mM Na2HPO4x7H2O, 0.41 mM NaH2PO4xH2O, 15 mM HEPES, 20 mM glucose, pH 7.2) to prepare the transport solutions (typically 10 μM compound, final DMSO<=0.5%). The transport solution (TL) is applied to the apical or basolateral donor side for measuring A-B or B-A permeability (3 filter replicates), respectively. The receiver side contains HTP-4 buffer supplemented with 2% BSA. Samples are collected at the start and end of experiment from the donor and at various time intervals for up to 2 hours also from the receiver side for concentration measurement by LC-MS/MS or scintillation counting. Sampled receiver volumes are replaced with fresh receiver solution.
The apparent permeability coefficients (PEAB and PEBA) of selected compounds in the Caco-2 drug transport assay described above are listed in Table 5.
Background: Caco-2 monolayers are a common model of the intestinal barrier.

A further data set is described as follows: Aqueous solubility. Format: physicochemical. The following applies: McIlvaine buffer with 2.5% DMSO, aqueous buffer, kinetic from dmso stock, McIlvaine buffer pH 6.8, 2.5% DMSO. Here is the method:
Assay for Determination of Aqueous Solubility
Starting from a 10 mM DMSO stock solution, aliquots are diluted with acetonitrile/water (1/1) and McIlvaine buffer pH 6.8, respectively. After 24 h of shaking, the solutions or suspensions are filtered and analyzed by LC-UV. The amount dissolved in buffer is compared to the amount dissolved in the acetonitrile/water (1/1) solution. Solubility is measured from 0.001 to 0.125 mg/ml at a DMSO concentration of 2.5%. If more than 90% of the compound is dissolved in buffer, the value is marked with “>”.

The compound `CC(=O)C1=C(C)N(c2cccc(C(F)(F)F)c2)C(=O)N(C)C1c1ccc(C#N)cc1-c1nnc(C)o1` (stereo not drawn) [Example 8, 4-[5-Acetyl-3,6-dimethyl-2-oxo-1-(3-trifluoromethyl-phenyl)-1,2,3,4-tetrahydro-pyrimidin-4-yl]-3-(5-methyl-[1,3,4]oxadiazol-2-yl)-benzonitrile] showed an IC50 on neutrophil elastase [1] of under 1 nM. Further, the EC50 on neutrophil elastase [2] was determined as 6 nM. Further, in data set [3], the half-life at 1 μM is over 2.17 h. In addition, in data set [4] (apical-to-basal, read-out: PEAB), the Papp A→B at 10 μM is 77 ×10⁻⁶ cm/s. Further, the Papp B→A at 10 μM in data set [4] (basal-to-apical, read-out: PEBA) turned out to be 63 ×10⁻⁶ cm/s. Also, in “Aqueous solubility”, the solubility at 24 h was 30 µg/mL (≈ 60.5 µM).
